Counter-ions that a name gives are not always drawn.
Legend:
[1] = system: Hepatotoxicity;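 on DILI positive/negative: binary label assigned from drug-induced liver injury observed in pharmaceutical company records, forming the validation set for the DILIps prediction system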;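 on HepSE Combined Scores: combined hepatic side effect score as listed in the training data of the Drug Induced Liver Injury Prediction System (DILIps)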;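 on HepSE bilirubinemia: bilirubinemia hepatic side effect score drawn from the DILIps training data, a prediction system for drug-induced liver injury; call rule not given here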;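 on HepSE cirrhosis: cirrhosis hepatic side effect score taken from the DILIps (drug-induced liver injury prediction) training set; call rule not given here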; on HepSE hepatic failure: call rule not given here;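 on HepSE jaundice: Jaundice-related hepatic side-effect score drawn from the training data of the DILIps (drug-induced liver injury prediction system); call rule not given here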; on HepSE liver disease: call rule not given here
[2] = system: Hepatotoxicity; remark: listed apart in the source;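 on DILI positive/negative: binary label assigned from drug-induced liver injury observed in pharmaceutical company records, forming the validation set for the DILIps prediction system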;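 on HepSE Combined Scores: combined hepatic side effect score as listed in the training data of the Drug Induced Liver Injury Prediction System (DILIps)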;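 on HepSE bilirubinemia: bilirubinemia hepatic side effect score drawn from the DILIps training data, a prediction system for drug-induced liver injury; call rule not given here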;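 on HepSE cirrhosis: cirrhosis hepatic side effect score taken from the DILIps (drug-induced liver injury prediction) training set; call rule not given here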; on HepSE hepatic failure: call rule not given here;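 on HepSE jaundice: Jaundice-related hepatic side-effect score drawn from the training data of the DILIps (drug-induced liver injury prediction system); call rule not given here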; on HepSE liver disease: call rule not given here
[3] = system: Hepatotoxicity; remark: listed apart in the source;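 on DILI positive/negative: binary label assigned from drug-induced liver injury observed in pharmaceutical company records, forming the validation set for the DILIps prediction system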;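 on HepSE Combined Scores: combined hepatic side effect score as listed in the training data of the Drug Induced Liver Injury Prediction System (DILIps)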;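 on HepSE bilirubinemia: bilirubinemia hepatic side effect score drawn from the DILIps training data, a prediction system for drug-induced liver injury; call rule not given here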;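 on HepSE cirrhosis: cirrhosis hepatic side effect score taken from the DILIps (drug-induced liver injury prediction) training set; call rule not given here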; on HepSE hepatic failure: call rule not given here;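 on HepSE jaundice: Jaundice-related hepatic side-effect score drawn from the training data of the DILIps (drug-induced liver injury prediction system); call rule not given here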; on HepSE liver disease: call rule not given here
[4] = system: Hepatotoxicity; remark: listed apart in the source;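 on DILI positive/negative: binary label assigned from drug-induced liver injury observed in pharmaceutical company records, forming the validation set for the DILIps prediction system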;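 on HepSE Combined Scores: combined hepatic side effect score as listed in the training data of the Drug Induced Liver Injury Prediction System (DILIps)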;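 on HepSE bilirubinemia: bilirubinemia hepatic side effect score drawn from the DILIps training data, a prediction system for drug-induced liver injury; call rule not given here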;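 on HepSE cirrhosis: cirrhosis hepatic side effect score taken from the DILIps (drug-induced liver injury prediction) training set; call rule not given here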; on HepSE hepatic failure: call rule not given here;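 on HepSE jaundice: Jaundice-related hepatic side-effect score drawn from the training data of the DILIps (drug-induced liver injury prediction system); call rule not given here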; on HepSE liver disease: call rule not given here
[5] = system: Hepatotoxicity; remark: listed apart in the source; on HepSE hepatic failure: call rule not given here; on HepSE liver disease: call rule not given here
[6] = system: Hepatotoxicity; remark: listed apart in the source; on HepSE hepatic failure: call rule not given here; on HepSE liver disease: call rule not given here
[7] = system: Hepatotoxicity; remark: listed apart in the source
[8] = system: Hepatotoxicity; remark: listed apart in the source
[9] = system: Hepatotoxicity; remark: listed apart in the source
[10] = system: Hepatotoxicity; remark: listed apart in the source
[11] = system: Hepatotoxicity; remark: listed apart in the source
[12] = system: Hepatotoxicity; remark: listed apart in the source
[13] = system: Hepatotoxicity; remark: listed apart in the source
[14] = system: Hepatotoxicity; remark: listed apart in the source
[15] = system: Hepatotoxicity; remark: listed apart in the source

Compound COc1cccc(OC)c1C(=O)N[C@@H]1C(=O)N2[C@@H]1SC(C)(C)[C@@H]2C(=O)[O-].[Na+] has a DILI positive/negative [1] of 1.

Compound Cl.NCCNCCNCCN has a DILI positive/negative ([1]; Liver) of 1.

In the case of Cl.Cl.OCCN1CCN(CC/C=C2/c3ccccc3Sc3ccc(C(F)(F)F)cc32)CC1, the DILI positive/negative ([1]; Liver) is reported as 0.

Work on Cl.Nc1cc(Cl)cc(Cl)c1 yielded a DILI positive/negative [1] of 0.

With C=CC(O)CC#N (configuration not stated) the DILI positive/negative [1] was 0.

O=C1NC(=O)C(O)(O)C(=O)N1 gave a DILI positive/negative [1] of 0.

Compound CCN(CC)Cc1cc(Nc2ccnc3cc(Cl)ccc23)ccc1O.Cl.Cl.Cl has a DILI positive/negative ([1]; Liver) of 1.

Work on O=C1NCN(c2ccccc2)C12CCN(CCCC(c1ccc(F)cc1)c1ccc(F)cc1)CC2 yielded a DILI positive/negative [1] of 1.

C=C1CC[C@@]2(O)[C@H]3Cc4ccc(O)c5c4[C@@]2(CCN3CC2CC2)[C@H]1O5 gave a DILI positive/negative [1] of 0.

S=C=Nc1cccc2ccccc12 [1-NAPHTHYLISOTHIOCYANATE] was tested, and the DILI positive/negative [1] was 1.

Compound CC(=O)Nc1ccc2c(c1)Cc1ccccc1-2 [2-ACETYLAMINOFLUORENE] has a DILI positive/negative [1] of 1.

For Cc1ccc2cc3c(ccc4ccccc43)c3c2c1CC3 [3-METHYLCHOLANTHRENE], the DILI positive/negative [1] was 1.

CC(=O)CC(c1ccc([N+](=O)[O-])cc1)c1c(O)c2ccccc2oc1=O (configuration not stated) [ACENOCOUMAROL] gave a DILI positive/negative [1] of 1.

CC(=O)c1ccc(S(=O)(=O)NC(=O)NC2CCCCC2)cc1 [ACETOHEXAMIDE] was tested, and the DILI positive/negative [1] was 1.

Compound N[C@H](C(=O)O)[C@@H]1CC(Cl)=NO1 [ACIVICIN] has a DILI positive/negative [1] of 0.

COc1cc2c(c3oc(=O)c4c(c13)CCC4=O)[C@@H]1C=CO[C@@H]1O2 [AFLATOXIN] was tested, and the DILI positive/negative [1] was 1.

Work on C=CCO [ALLYL ALCOHOL] yielded a DILI positive/negative [1] of 1.

C=CCOC=O [ALLYL FORMATE] was tested, and the DILI positive/negative [1] was 1.

Cl.O=C(O)CCCCCCNC1c2ccccc2CCc2ccccc21 [AMINEPTINE HYDROCHLORIDE] gave a DILI positive/negative [1] of 1.

Nc1ccc(C(=O)[O-])cc1.[K+] [AMINOBENZOATE POTASSIUM] showed a DILI positive/negative [1] of 0.

In the case of CCOC(=O)C1(c2ccccc2)CCN(CCc2ccc(N)cc2)CC1.Cl [ANILERIDINE HYDROCHLORIDE], the DILI positive/negative [1] is reported as 0.

With SEVELAMER the HepSE_bilirubinemia [2] was 0, the HepSE_liver disease [3] was 0 and the HepSE_cirrhosis [4] was 0. The HepSE_hepatic failure [5] was 0, the “HepSE_Combined Scores” value [6] was 0 and the HepSE_jaundice [7] was 0. For the same compound, the HepSE_liver fatty [8] was 0, the HepSE_cholelithiasis [9] was 0 and the HepSE_hepatomegaly [10] was 0. For the same compound, the “HepSE_liver function tests abnormal” value [11] was 0, the “HepSE_elevated liver function tests” value [12] was 0 and the HepSE_hepatic necrosis [13] was 0. The HepSE_cholecystitis [14] was 0 and the HepSE_hepatitis [15] was 0.

Work on UROFOLLITROPIN yielded a HepSE_bilirubinemia [2] of 0, a HepSE_liver disease [3] of 0 and a HepSE_cirrhosis [4] of 0. The HepSE_hepatic failure [5] was 0, the “HepSE_Combined Scores” value [6] was 0 and the HepSE_jaundice [7] was 0. It also gave a HepSE_liver fatty [8] of 0, a HepSE_cholelithiasis [9] of 0 and a HepSE_hepatomegaly [10] of 0. For the same compound, the “HepSE_liver function tests abnormal” value [11] was 0, the “HepSE_elevated liver function tests” value [12] was 0 and the HepSE_hepatic necrosis [13] was 0. The HepSE_cholecystitis [14] was 0 and the HepSE_hepatitis [15] was 0.

For VERTEPORFIN, the HepSE_bilirubinemia [2] was 0, the HepSE_liver disease [3] was 0 and the HepSE_cirrhosis [4] was 0. For the same compound, the HepSE_hepatic failure [5] was 0, the “HepSE_Combined Scores” value [6] was 1 and the HepSE_jaundice [7] was 0. It also gave a HepSE_liver fatty [8] of 0, a HepSE_cholelithiasis [9] of 0 and a HepSE_hepatomegaly [10] of 0. The “HepSE_liver function tests abnormal” value [11] was 0, the “HepSE_elevated liver function tests” value [12] was 1 and the HepSE_hepatic necrosis [13] was 0. For the same compound, the HepSE_cholecystitis [14] was 0 and the HepSE_hepatitis [15] was 0.

Compound VITAMIN B12 has a HepSE_bilirubinemia [2] of 0, a HepSE_liver disease [3] of 0 and a HepSE_cirrhosis [4] of 0. For the same compound, the HepSE_hepatic failure [5] was 0, the “HepSE_Combined Scores” value [6] was 0 and the HepSE_jaundice [7] was 0. It also gave a HepSE_liver fatty [8] of 0, a HepSE_cholelithiasis [9] of 0 and a HepSE_hepatomegaly [10] of 0. The “HepSE_liver function tests abnormal” value [11] was 0, the “HepSE_elevated liver function tests” value [12] was 0 and the HepSE_hepatic necrosis [13] was 0. For the same compound, the HepSE_cholecystitis [14] was 0 and the HepSE_hepatitis [15] was 0.
